Measured values published in patent publication US20230123334A1, “AMINO LIPID COMPOUND, PREPARATION METHOD THEREFOR, AND APPLICATION THEREOF” (SHENZHEN SHENXIN BIOTECHNOLOGY CO., LTD., priority 2020, published 2023).

These molecules were tested on HEK293 cells (assay: Preliminary screening as mRNA vectors, EGFP mRNA transfection of HEK293 cells). Details: EGFP mRNA 50 ng per well, 96-well plates; percentage of GFP fluorescent cells relative to total number of cells (Hoechst).
Format: cell-based
Method in brief: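 Screening format: EGFP mRNA transfection (50 ng/well) into HEK293 in 10% FBS-supplemented DMEM. Percent green fluorescent cells, normalised to Hoechst nuclear count, gave the value; Lipofectamine2000 was the reference transfectant.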

Row | Structure (SMILES) | Absolute mRNA transfection efficiency in HEK293 cells
1 | CCCCCCCSc1nc(NCCN2CCOCC2)nc(SCCCCCC)n1 [Compound D2S6S7] | 0.6%
2 | CCCCCCCCCCSc1nc(NCCN(C)C)nc(SCCCCCCCC)n1 [Compound D1S8S10] | 8.6%
3 | CCCCCCCCCCCSc1nc(NCCN(CC)CC)nc(SCCCCCC)n1 [Compound D7S6S11] | 0.5%
4 | CCCCCCCCCCCCCCCCCCSc1nc(NCCCCCCCCC)nc(NCC2CCN(C)CC2)n1 [Compound D10S18N9] | 8.9%
5 | CCCCCCCCCCCCSc1nc(NCCCN(C)C)nc(SCCCCCC)n1 [Compound D6S6S12] | 24.7%
6 | CCCCCCCCCCCSc1nc(NCCCCCCCCC)nc(NCCCN2CCN(C)CC2)n1 [Compound D9S11N9] | 60.3%
7 | CCCCCCCCCCCCCCSc1nc(NCCCCCCCC)nc(NCCN2CCOCC2)n1 [Compound D2S14N8] | 3.7%
8 | CCCCCCCCCCCCSc1nc(NCCCCCCCC)nc(NCCN(CC)CC)n1 [Compound D7S12N8] | 3.0%
9 | CCCCCCCCCCCCCCCSc1nc(NCCCCCCCCCCCCC)nc(NCCN2CCCC2)n1 [Compound D3S15N13] | 3.0%
10 | CCCCCCCCCCCNc1nc(NCC2CCN(C)CC2)nc(SCCCCCCCCCCC)n1 [Compound D10S11N11] | 27.7%
11 | CCCCCCCCCCCCNc1nc(NCCCN2CCN(C)CC2)nc(SCCCCCCC)n1 [Compound D9S7N12] | 62.7%
12 | CCCCCCCCCCSc1nc(NCC2CCN(C)CC2)nc(SCCCCCC)n1 [Compound D10S6S10] | 22.4%
13 | CCCCCCCNc1nc(NCCN(CC)CC)nc(SCCCCCC)n1 [Compound D7S6N7] | 0.0%
14 | CCCCCCCCCCCCCCCSc1nc(NCCCCCCCC)nc(NCCN2CCCCC2)n1 [Compound D4S15N8] | 1.6%
15 | CCCCCCCCCCCCCCCCSc1nc(NCCCCCCCCCCC)nc(NCCN(C)C)n1 [Compound D1S16N11] | 19.8%
16 | CCCCCCCCCCCCCNc1nc(NCC2CCN(C)CC2)nc(SCCCCCCC)n1 [Compound D10S7N13] | 70.8%
17 | CCCCCCCCCCCSc1nc(NCCCCCCCC)nc(NCCN(CC)CC)n1 [Compound D7S11N8] | 13.4%
18 | CCCCCCCCCCCCCCCCCCNc1nc(NCCCN2CCN(C)CC2)nc(SCCCCCCCCCCCCCCC)n1 [Compound D9S15N18] | 0.3%
19 | CCCCCCCCCCCCCCCCCCNc1nc(NCC2CCN(C)CC2)nc(SCCCCCCCC)n1 [Compound D10S8N18] | 20.1%
20 | CCCCCCCCCCCCNc1nc(NCCN2CCCCC2)nc(SCCCCCC)n1 [Compound D4S6N12] | 0.7%
21 | CCCCCCCCCCCCCCCCCCNc1nc(NCCN2CCCC2)nc(SCCCCCCCCCCCCCCC)n1 [Compound D3S15N18] | 8.5%
22 | CCCCCCCCCCCSc1nc(NCCCCCCCC)nc(NCCCN(C)C)n1 [Compound D6S11N8] | 16.8%
23 | CCCCCCCCCCCCCCCCNc1nc(NCCN2CCN(C)CC2)nc(SCCCCCCCCC)n1 [Compound D5S9N16] | 16.1%
24 | CCCCCCCCCCCCCCSc1nc(NCCCCCCCCCCCCC)nc(NCCCN2CCOCC2)n1 [Compound D8S14N13] | 1.4%
25 | CCCCCCCCCCCCCCCNc1nc(NCCN2CCOCC2)nc(SCCCCCCCCCCCCCCC)n1 [Compound D2S15N15] | 0.2%

Row | Structure (SMILES) | Absolute mRNA transfection efficiency in HEK293 cells
26 | CCCCCCCCCCCCCCCSc1nc(NCCN2CCN(C)CC2)nc(SCCCCCC)n1 [Compound D5S6S15] | 29.7%
27 | CCCCCCCCCCCNc1nc(NCCCN2CCN(C)CC2)nc(SCCCCCCCCC)n1 [Compound D9S9N11] | 49.2%
28 | CCCCCCCCCCCCN(CCCCCCCCCCCC)c1nc(NCC2CCN(C)CC2)nc(SCCCCCCCC)n1 [D10S8^2N12] | 1.5%
29 | CCCCCCCCCCCCCCCCCCNc1nc(NCCN(CC)CC)nc(SCCCCCCCCCCC)n1 [Compound D7S11N18] | 10.8%
30 | CCCCCCCCCCCCCCSc1nc(NCCCCCCC)nc(NCCN2CCCC2)n1 [Compound D3S14N7] | 64.2%
31 | CCCCCCCCCCCCCCSc1nc(NCCCCCC)nc(NCCN2CCN(C)CC2)n1 [Compound D5S14N6] | 48.0%
32 | CCCCCCCCCNc1nc(NCCN2CCCC2)nc(SCCCCCCCCC)n1 [Compound D3S9N9] | 15.4%
33 | CCCCCCCCCCCCNc1nc(NCCCN2CCOCC2)nc(SCCCCCCC)n1 [Compound D8S7N12] | 2.3%
34 | CCCCCCCCSc1nc(NCCCCCCC)nc(NCCCN(C)C)n1 [Compound D6S8N7] | 4.3%
35 | CCCCCCCCCCCCCCCCSc1nc(NCCCCCCCCCCCC)nc(NCCN2CCOCC2)n1 [Compound D2S16N12] | 1.2%
36 | CCCCCCCCCCCNc1nc(NCCCN2CCN(C)CC2)nc(SCCCCCCCC)n1 [Compound D9S8N11] | 81.7%
37 | CCCCCCCCCCCSc1nc(NCCCN(C)C)nc(SCCCCCC)n1 [Compound D6S6S11] | 15.7%
38 | CCCCCCCCCCCCCCCCCCNc1nc(NCCN2CCCC2)nc(SCCCCCCCCCCCCCC)n1 [Compound D3S14N18] | 1.5%
39 | CCCCCCCCCCCCCCCCCCNc1nc(NCC2CCN(C)CC2)nc(SCCCCCC)n1 [Compound D10S6N18] | 41.4%
40 | CCCCCCCCCCCCCCCCNc1nc(NCCCN2CCN(C)CC2)nc(SCCCCCCC)n1 [Compound D9S7N16] | 29.3%
41 | CCCCCCCCCCCCCCCNc1nc(NCCCN2CCOCC2)nc(SCCCCCCC)n1 [Compound D8S7N15] | 2.8%
42 | CCCCCCCCCCSc1nc(NCCCCCCCC)nc(NCCN(CC)CC)n1 [Compound D7S10N8] | 0.3%
43 | CCCCCCCCCCCCCCCCCCNc1nc(NCCCN2CCOCC2)nc(SCCCCCCC)n1 [Compound D8S7N18] | 3.0%
44 | CCCCCCCCCCCCCNc1nc(NCCN2CCCCC2)nc(SCCCCCCCCCC)n1 [Compound D4S10N13] | 0.3%
45 | CCCCCCCCSc1nc(NCCN(CC)CC)nc(SCCCCCCC)n1 [Compound D7S7S8] | 42.1%
46 | CCCCCCCCCCCCCCCCCCNc1nc(NCCN(C)C)nc(SCCCCCCCCC)n1 [Compound D1S9N18] | 47.6%
47 | CCCCCCCCCCCCCCSc1nc(NCCCCCCCCCCCCC)nc(NCCN2CCOCC2)n1 [Compound D2S14N13] | 1.1%
48 | CCCCCCSc1nc(NCCN2CCCC2)nc(SCCCCCC)n1 [Compound D3S6S6] | 1.9%
49 | CCCCCCCCCCCCCCCCSc1nc(NCCN(CC)CC)nc(SCCCCCC)n1 [Compound D7S6S16] | 2.3%
50 | CCCCCCCCSc1nc(NCCCN2CCOCC2)nc(SCCCCCCC)n1 [Compound D8S7S8] | 5.0%
